Earlier results on 3 compounds are cited in patent publication US20060240399A1, “Long-term shelf preservation of cells and multicellular specimens by vitrification” (priority 1999, published 2006).

Structures are written as SMILES.

In this data set the test system is Drosophila melanogaster embryos. As to conditions: co-solute added to vitrification solution.
For `N[C@@H](CCC(=O)O)C(=O)O` [glutamic acid], the “effect on ethylene glycol permeation inside embryos” value (shortened to “effect”) is on record as “significantly diminished”. For `NCC(=O)O` [glycine], the “effect” value is recorded as “significantly diminished”.

In the case of `OC[C@@H](O)[C@@H](O)[C@H](O)[C@@H](O)CO` [sorbitol], the “effect” value is given as “significantly diminished”.
